In publication PMC7765794 (Nutrients, 2020):

Molecular target: T1, human ODC (Homo sapiens, UniProt P11926)
T1 construct: His-tag (N); made in house; host or cells: Escherichia coli JM109
T1 sequence (P11926 1-461): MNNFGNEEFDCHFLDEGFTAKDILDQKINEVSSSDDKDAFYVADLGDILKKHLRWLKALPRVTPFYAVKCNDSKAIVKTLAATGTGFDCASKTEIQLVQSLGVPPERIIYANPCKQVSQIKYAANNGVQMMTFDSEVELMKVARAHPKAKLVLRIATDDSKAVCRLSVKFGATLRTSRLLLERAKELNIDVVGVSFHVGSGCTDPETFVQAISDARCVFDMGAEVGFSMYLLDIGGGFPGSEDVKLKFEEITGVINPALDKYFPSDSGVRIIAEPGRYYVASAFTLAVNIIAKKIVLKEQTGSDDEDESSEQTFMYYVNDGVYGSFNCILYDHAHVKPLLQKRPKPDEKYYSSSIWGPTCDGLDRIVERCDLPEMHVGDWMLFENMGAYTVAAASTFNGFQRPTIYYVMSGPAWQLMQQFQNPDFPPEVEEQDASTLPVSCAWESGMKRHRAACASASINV
Assay: ODC enzyme activity assay and inhibition study (CO2-L3K coupled spectrophotometric assay);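 also: His-tagged human ODC expressed in Escherichia coli, activity followed as decarboxylation coupled via PEP carboxylation and malate formation to NADH analog oxidation, absorbance drop at 405 nm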
Type: biochemical
Details: for IC50 / IC50 to ornithine decarboxylase (ODC): purified human ODC, 37 °C, 10 mM ornithine, 0.2 mM PLP, n = 3; for IC50: read-out: IC50 to ornithine decarboxylase (ODC); for ODC suppression activity (in words): purified human ODC enzyme activity; for IC50 relative to that of myricetin: IC50 greater than that of myricetin

| IC50 to ornithine decarboxylase (ODC) | SMILES | ODC suppression activity (in words) | further results |
| --- | --- | --- | --- |
| No inhibition | COc1ccc2c(=O)cc(-c3ccccc3)oc2c1OC [7,8-Dimethoxyflavone] | little ODC suppression activity |  |
| No inhibition | O=c1cc(-c2ccc(O)cc2)oc2cc(O)cc(O)c12 [Apigenin] | did not show any ODC suppression activity |  |
| No inhibition | COc1ccc(-c2coc3cc(O)cc(O)c3c2=O)cc1 [Biochanin] | did not show any ODC suppression activity |  |
| No inhibition | O=c1cc(-c2ccccc2)oc2cc(O)cc(O)c12 [Chrysin] | little ODC suppression activity |  |
| No inhibition | O=c1c(-c2ccc(O)cc2)coc2cc(O)ccc12 [Daidzein] | did not show any ODC suppression activity |  |
| No inhibition | O=c1cc(-c2ccccc2)oc2ccccc12 [Flavone] | little ODC suppression activity |  |
| No inhibition | O=C1C[C@@H](c2ccc(O)cc2)Oc2cc(O)cc(O)c21 [Naringenin] | did not show any ODC suppression activity |  |

Second part, the compound before the results:

| SMILES | IC50 to ornithine decarboxylase (ODC) | ODC suppression activity (in words) | further results |
| --- | --- | --- | --- |
| NCCCC(N)(C(=O)O)C(F)F (racemic) [DFMO, α-DL-difluoromethylornithine, reference compound] |  |  | IC50: ~100 µM |
| O=C1C=Cc2ccccc2C1=O [1,2-Naphthoquinone, reference compound] |  | cannot inhibit ODC activity | ODC suppression activity (in words) (listed as 1,2-naphthoquinone): none of these compounds were able to suppress ODC activity |
| Cc1ncc(CO)c(C)c1O [4-Deoxypyridoxine, reference compound] |  | cannot inhibit ODC activity | ODC suppression activity (in words) (listed as 4-deoxypyridoxine): none of these compounds were able to suppress ODC activity |
| Cc1ncc(CO)c(C(=O)O)c1O [4-Pyridoxic acid, reference compound] |  | cannot inhibit ODC activity | ODC suppression activity (in words) (listed as 4-pyridoxic acid): none of these compounds were able to suppress ODC activity |
| O=c1cc(-c2ccccc2)oc2cc(O)c(O)cc12 [6,7-Dihydroxyflavone] |  |  | IC50 relative to that of 7,8-DHF (IC50 greater than that of 7,8-DHF): approximately 100 fold; IC50: 289 µM |
| O=c1cc(-c2ccccc2)oc2ccc(O)cc12 [6-Hydroxyflavone] | No inhibition | did not show any ODC suppression activity |  |
| O=c1cc(-c2ccccc2)oc2c(O)c(O)ccc12 [7,8-Dihydroxyflavone] |  |  | inhibition pattern with respect to L-ornithine (double reciprocal plots): noncompetitive inhibition pattern; IC50: 2.54 µM; Ki (with respect to substrate L-ornithine, noncompetitive fit, read-out: Ki(ornithine) against ODC): 1.4 ± 0.1 µM |
| O=c1cc(-c2ccccc2)oc2cc(O)ccc12 [7-Hydroxyflavone] | No inhibition | did not show any ODC suppression activity |  |
| Cn1c(=O)c2c(ncn2C)n(C)c1=O [Caffeine, reference compound] |  | cannot inhibit ODC activity | ODC suppression activity (in words) (listed as caffeine): none of these compounds were able to suppress ODC activity |
| CCOc1cc(C=O)ccc1O [Ethyl vanillin, reference compound] |  | cannot inhibit ODC activity | ODC suppression activity (in words) (listed as ethyl vanillin): none of these compounds were able to suppress ODC activity |
| O=c1c(O)c(-c2ccc(O)c(O)c2)oc2cc(O)ccc12 [Fisetin] |  |  | IC50: 96 µM |
| O=c1c(O)c(-c2ccccc2)oc2ccccc12 [Flavonol] | No inhibition | little ODC suppression activity |  |
| O=c1c(O)c(-c2ccc(O)cc2)oc2cc(O)cc(O)c12 [Kaempferol] |  | did not show any ODC suppression activity |  |
| O=c1cc(-c2ccc(O)c(O)c2)oc2cc(O)cc(O)c12 [Luteolin] |  |  | IC50 relative to that of myricetin: 10 fold; IC50: 90 µM |
| O=c1c(O)c(-c2ccc(O)cc2O)oc2cc(O)cc(O)c12 [Morin] |  |  | IC50 relative to that of myricetin: 10 fold; IC50: 82 µM |
